Data published in ChEMBL document CHEMBL6109101, “Synthesis and bioactivity of cyclic peptide GG-8-6 analogues as anti-hepatocellular carcinoma agents” (Eur J Med Chem, 2025).
Calls of active or inactive are those of the source. The calls are words filed in the database; no cut-off is given here.

What was measured:
MHCC97H [1] = test: Antitumor activity against human MHCC97H cells xenografted in nude mouse assessed as tumor growth inhibition at 10 mg/kg, po administered daily for 3 weeks relative to control; assay type: functional; conditions: 504 h, read-out: TGI
MHCC97H [2] = test: Antitumor activity against human MHCC97H cells xenografted in nude mouse assessed as tumor growth inhibition at 5 mg/kg, po administered daily for 3 weeks relative to control; assay type: functional; conditions: 504 h, read-out: TGI
MHCC97H [3] = test: Antiproliferative activity against human MHCC97H cells assessed as reduction in intracellular ATP level at 10 uM incubated for 48 hrs by luminometer analysis relative to control; assay type: functional; design: scale not given: the % may be the effect or the level left
MHCC97H [4] = test: Antitumor activity against human MHCC97H cells xenografted in nude mouse assessed as tumor weight at 5 mg/kg, po administered daily for 3 weeks (reference value: 1.667g); assay type: functional
HCCLM3 [5] = test: Antiproliferative activity against human HCCLM3 cells assessed as reduction in intracellular ATP level at 10 uM incubated for 48 hrs by luminometer analysis relative to control; assay type: functional; design: scale not given: the % may be the effect or the level left
MHCC97H [6] = test: Antitumor activity against human MHCC97H cells xenografted in nude mouse assessed as tumor weight at 10 mg/kg, po administered daily for 3 weeks (reference value: 1.667g); assay type: functional
HepG2 [7] = test: Antiproliferative activity against human HepG2 cells assessed as reduction in intracellular ATP level at 10 uM incubated for 48 hrs by luminometer analysis relative to control; assay type: functional; design: scale not given: the % may be the effect or the level left
Huh-7 [8] = test: Antiproliferative activity against human Huh-7 cells assessed as reduction in intracellular ATP level at 10 uM incubated for 48 hrs by luminometer analysis relative to control; assay type: functional; design: scale not given: the % may be the effect or the level left
MHCC97H [9] = test: Antitumor activity against human MHCC97H cells xenografted in nude mouse assessed as tumor growth inhibition at 15 mg/kg, po administered daily for 3 weeks relative to control; assay type: functional; conditions: 504 h, read-out: TGI
MHCC97H [10] = test: Antiproliferative activity against human MHCC97H cells assessed as reduction in intracellular ATP level at 30 uM incubated for 48 hrs by luminometer analysis relative to control; assay type: functional; design: scale not given: the % may be the effect or the level left
MHCC97H [11] = test: Antitumor activity against human MHCC97H cells xenografted in nude mouse assessed as tumor weight at 15 mg/kg, po administered daily for 3 weeks (reference value: 1.667g); assay type: functional
HCCLM3 [12] = test: Cytotoxicity against human HCCLM3 cells assessed as inhibition of cell proliferation incubated for 48 hrs by MTT assay; assay type: functional, cell-based; conditions: HCCLM3, 48 h
MHCC97H [13] = test: Cytotoxicity against human MHCC97H cells assessed as inhibition of cell proliferation incubated for 48 hrs by MTT assay; assay type: functional, cell-based
HepG2 [14] = test: Cytotoxicity against human HepG2 cells assessed as inhibition of cell proliferation incubated for 48 hrs by MTT assay; assay type: functional, cell-based; conditions: HepG2, 48 h
MHCC97H [15] = test: Antitumor activity against human MHCC97H cells xenografted in nude mouse assessed as tumor growth inhibition at 20 mg/kg, po administered daily for 3 weeks relative to control; assay type: functional; conditions: 504 h, read-out: TGI
[16] = Toxicity in nude mouse implanted with human MHCC97H cells assessed as body weight at 20 mg/kg, po administered daily for 3 weeks and measured immediately (reference value: 25.05 g); assay type: organism-based; conditions: in vivo, 504 h
MHCC97H [17] = test: Antitumor activity against human MHCC97H cells xenografted in nude mouse assessed as tumor weight at 20 mg/kg, po administered daily for 3 weeks (reference value: 1.667g); assay type: functional
Huh-7 [18] = test: Cytotoxicity against human Huh-7 cells assessed as inhibition of cell proliferation incubated for 48 hrs by MTT assay; assay type: functional, cell-based; conditions: Huh-7, 48 h
MHCC97H [19] = test: Cytotoxicity against human MHCC97H cells assessed as reduction in cell viability at 40 uM measured after 48 hrs by MTT assay; assay type: functional, cell-based
MHCC97H [20] = test: Cytotoxicity against human MHCC97H cells assessed as cell viability up to 40 uM measured at 12 hrs by MTT assay; assay type: functional, cell-based
HCCLM3 [21] = test: Cytotoxicity against human HCCLM3 cells assessed as reduction in cell viability at 40 uM measured at 48 hrs by MTT assay; assay type: functional, cell-based
HCCLM3 [22] = test: Cytotoxicity against human HCCLM3 cells assessed as cell viability up to 40 uM measured at 24 to 48 hrs by MTT assay; assay type: functional, cell-based; conditions: time 24-48 hrs
MHCC97H [23] = test: Cytotoxicity against human MHCC97H cells assessed as cell viability up to 40 uM by MTT assay; assay type: functional, cell-based; conditions: time 12-48 hrs
HCCLM3 [24] = test: Cytotoxicity against human HCCLM3 cells assessed as reduction in cell viability at 40 uM measured after 48 hrs by MTT assay; assay type: functional, cell-based
HCCLM3 [25] = test: Cytotoxicity against human HCCLM3 cells assessed as cell viability up to 40 uM measured at 12 hrs by MTT assay; assay type: functional, cell-based
HCCLM3 [26] = test: Cytotoxicity against human HCCLM3 cells assessed as cell viability up to 40 uM by MTT assay; assay type: functional, cell-based; conditions: time 12-48 hrs
HCCLM3 [27] = test: Cytotoxicity against human HCCLM3 cells assessed as cell viability incubated at 12 to 48 hrs hrs by MTT assay; assay type: functional, cell-based; conditions: dose <= 40.0 µM, time 12-48 hrs
MHCC97H [28] = test: Antitumor activity against human MHCC97H cells xenografted in nude mouse assessed as increase in apoptotic cells at 5 to 10 mg/kg, po administered daily for 3 weeks by TUNEL staining based assay; assay type: functional, organism-based; conditions: dose 5-10 mg/kg
MHCC97H [29] = test: Cytotoxicity against human MHCC97H cells assessed as cell viability up to 40 uM measured at 24 to 48 hrs by MTT assay; assay type: functional, cell-based; conditions: time 24-48 hrs
MHCC97H [30] = test: Cytotoxicity against human MHCC97H cells assessed as cell viability incubated at 12 to 48 hrs hrs by MTT assay; assay type: functional, cell-based; conditions: dose <= 40.0 µM, time 12-48 hrs
MHCC97H [31] = test: Cytotoxicity against human MHCC97H cells assessed as reduction in cell viability up to 40 uM measured at 48 hrs by MTT assay; assay type: functional, cell-based
HCCLM3 [32] = test: Cytotoxicity against human HCCLM3 cells assessed as reduction in cell viability up to 40 uM measured at 48 hrs by MTT assay; assay type: functional, cell-based
MHCC97H [33] = test: Cytotoxicity against human MHCC97H cells assessed as reduction in cell viability at 40 uM measured at 48 hrs by MTT assay; assay type: functional, cell-based

Work on `CC[C@H](C)[C@@H]1NC(=O)[C@@H]2CCCN2C(=O)[C@H](CC(C)C)NC(=O)[C@H](COC(C)(C)C)NC(=O)[C@H](CC(C)C)NC(=O)[C@H](C(C)C)NC(=O)[C@H](CC(C)C)NC(=O)[C@H](CC(C)C)NC(=O)[C@H](CC(C)C)NC1=O` yielded an inhibition in vivo at 10 mg/kg (MHCC97H [1]) of 84.3%, an inhibition in vivo at 5 mg/kg (MHCC97H [2]) of 68.9% and an Activity (MHCC97H [3]) of 87.8%. The Activity (MHCC97H [4]) was 0.052 g, the Activity (HCCLM3 [5]) was 99.9% and the Activity (MHCC97H [6]) was 0.262 g. The Activity (HepG2 [7]) was 41.1% and the Activity (Huh-7 [8]) was 81.8%.
In the case of `CC[C@H](C)[C@@H]1NC(=O)[C@@H]2CCCN2C(=O)[C@H](CC(C)C)NC(=O)[C@H](CO)NC(=O)[C@H](CC(C)C)NC(=O)[C@H](C(C)C)NC(=O)[C@H](CC(C)C)NC(=O)[C@H](CC(C)C)NC(=O)[C@H](CC(C)C)NC1=O`, the inhibition in vivo at 15 mg/kg (MHCC97H [9]) is reported as 58.4%, the inhibition in vivo at 10 mg/kg (MHCC97H [1]) is reported as 56.1% and the inhibition in vivo at 5 mg/kg (MHCC97H [2]) is reported as 66.9%. For the same molecule, the Activity (MHCC97H [3]) was 47.3%, the Activity (MHCC97H [4]) was 0.552 g and the Activity (MHCC97H [10]) was 61.9%. The Activity (HCCLM3 [5]) was 45.9%, the Activity (MHCC97H [6]) was 0.732 g and the Activity (HepG2 [7]) was 47.1%. It also gave an Activity (Huh-7 [8]) of 47.3% and an Activity (MHCC97H [11]) of 0.695 g.
With `CNC(=O)c1cc(Oc2ccc(NC(=O)Nc3ccc(Cl)c(C(F)(F)F)c3)cc2)ccn1` [SORAFENIB] the IC50 (HCCLM3 [12]) was 9.22 µM, the IC50 (MHCC97H [13]) was 15.2 µM and the IC50 (HepG2 [14]) was 13.8 µM. The inhibition in vivo at 20 mg/kg (MHCC97H [15]) was 42.8%, the Activity [16] was 26.85 g and the Activity (MHCC97H [17]) was 0.955 g. It also gave an IC50 (Huh-7 [18]) of 13.8 µM.
For `CC[C@@H](C)[C@H]1NC(=O)[C@@H]2CCCN2C(=O)[C@@H](CC(C)C)NC(=O)[C@H](COC(C)(C)C)NC(=O)[C@@H](CC(C)C)NC(=O)[C@H](C(C)C)NC(=O)[C@H](CC(C)C)NC(=O)[C@H](CC(C)C)NC(=O)[C@H](CC(C)C)NC1=O`, the Activity (MHCC97H [19]) was “Active”, the Activity (MHCC97H [20]) was “Active” and the Activity (HCCLM3 [21]) was “Active”. For the same molecule, the Activity (HCCLM3 [22]) was “Active”, the Activity (MHCC97H [23]) was “Time-dependent-effect” and the Activity (HCCLM3 [24]) was “Active”. For the same molecule, the Activity (HCCLM3 [25]) was “Active”, the Activity (HCCLM3 [26]) was “Time-dependent-effect” and the Activity (HCCLM3 [27]) was “Dose-dependent-effect”. For the same molecule, the Activity (MHCC97H [28]) was “Active”, the Activity (MHCC97H [29]) was “Active” and the Activity (MHCC97H [30]) was “Dose-dependent-effect”. The Activity (MHCC97H [31]) was “Active”, the Activity (HCCLM3 [32]) was “Active” and the Activity (MHCC97H [33]) was “Active”.
